Data as given in US20260137664A1, “THERAPEUTIC AGENT FOR INTRACTABLE LYMPHATIC DISEASE AND INTRACTABLE VASCULAR DISEASE” (NATIONAL UNIVERSITY CORPORATION TOKAI NATIONAL HIGHER …, priority 2022, published 2026).

Assay: Population pharmacokinetic (PPK) analysis, nonlinear mixed effects model, two-compartment model
Format: in vivo, patients and healthy adults
Source text: The memory unit 12 stores pre-constructed PK (pharmacokinetics) model information. Specifically, it stores a blood concentration calculation formula for the active ingredient sirolimus when the drug is repeatedly administered, a parameter calculation formula for calculating parameters corresponding to patient information, and pre-constructed estimated values of pharmacokinetic parameters. The blood concentration calculation formula is a formula that expresses the blood sirolimus concentration based on a two-compartment model. The parameters corresponding to patient information are parameters used in the blood concentration calculation formula, and are standard parameters for estimating the blood sirolimus concentration of patients who have the same patient information (also referred to as “patient background”). In this document, these are referred to as “standard PK parameters”.
Here, ka is the absorption rate constant (h−1), Cl/F is the clearance (L/h), V1/F is the volume of the first compartment (L), V2/F is the volume of the second compartment (L), and Q/F is the intercompartmental clearance […]. The values of these parameters are related to the patient's weight and age, the dosage form of the administered drug, and the presence or absence of concomitant use of a CYP3A4 inhibitor or CYP3A4 inducer. Di is the dose of the drug.
Each parameter in the blood concentration calculation formula is expressed as a function with the patient's weight and age, the dosage form of the drug, etc. as variables. This function corresponds to the parameter calculation formula for calculating the parameters corresponding to the patient. This parameter calculation formula is obtained in advance by population pharmacokinetic analysis using a nonlinear mixed effects model.
In formula (2), TVka is the typical value of the absorption rate constant ka, and is obtained in advance by population pharmacokinetic analysis. In this embodiment, the point estimate of TVKa is 0.235 (h−1), the relative error is 1.17%, and the 95% confidence interval is 0.229-0.240.
In formula (3), TVCl is a typical value of clearance Cl/F, and is obtained in advance by population pharmacokinetic analysis. In this embodiment, the point estimate of TVCl is 6.44 (L/h), the relative error is 6.04%, and the width of the 95% confidence interval is 5.72-7.25. WT is the patient's body weight. PMA (Post menstrual age) is the age after the last menstrual period (gestational age+postnatal age) and corresponds to the patient's age. e^ηCL represents inter-individual variation. When there is no actual measured value for the patient, ηCL is 0, and the inter-individual variation is 1. “Clinical trials assay” refers to a blood sample stored frozen, and in the case of a blood sample stored frozen, it is multiplied by 1.92. In the case of a blood sample stored refrigerated, it is multiplied by 1. “CYP3A4 fold change” is a coefficient that is determined according to the concomitant drug when there is a concomitant drug. The coefficient will be described later with reference to FIG. 9.
In formula (4), TVV1 is a typical value of the volume of the first compartment V1/F, and is obtained in advance by population pharmacokinetic analysis. In the embodiment, the point estimate of TVV1 is 176 (L), the relative error is 2.43%, and the width of the 95% confidence interval is 168-185. WT is the patient's body weight. eηV1 represents inter-individual variation. When there is no actual measured value for the patient, ηV1 is 0, and the inter-individual variation is 1. Depending on the information that can be obtained, it may be difficult to estimate the random effect of the patient on V1, and in such a case, the inter-individual variation for V1 may be set to 1 for all patients.
In formula (5), TVV2 is the typical value of the volume of the second compartment V2/F, and is determined in advance by population pharmacokinetic analysis. […]

## CO[C@H]1C[C@@H]2CC[C@@H](C)[C@@](O)(O2)C(=O)C(=O)N2CCCC[C@H]2C(=O)O[C@H]([C@H](C)C[C@@H]2CC[C@@H](O)[C@H](OC)C2)CC(=O)[C@H](C)/C=C(\C)[C@@H](O)[C@@H](OC)C(=O)[C@H](C)C[C@H](C)/C=C/C=C/C=C/1C [sirolimus]
Population pharmacokinetic analysis, relative error 1.17%, 95% confidence interval 0.229-0.240
  TVka, typical value of the absorption rate constant ka (point estimate): 0.235 h⁻¹
Population pharmacokinetic analysis, relative error 2.43%, 95% confidence interval 168-185
  TVV1, typical value of the volume of the first compartment V1/F (point estimate): 176 L
Population pharmacokinetic analysis, relative error 4.07%, 95% confidence interval 31.0-36.3
  TVQ, typical value of the intercompartmental clearance Q/F (point estimate): 33.6 L/h
Population pharmacokinetic analysis, relative error 6.04%, 95% confidence interval 5.72-7.25
  TVCl, typical value of clearance Cl/F (point estimate): 6.44 L/h
Population pharmacokinetic analysis, relative error 13%, 95% confidence interval 218-362
  TVV2, typical value of the volume of the second compartment V2/F (point estimate): 281 L
When the drug is a granule (Granule formulation), formula (2)
  factor by which TVka is multiplied: 4.26
